Measurements taken from PubChem BioAssay (NCI).
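Results reflect a 48-hour exposure of cells in 96-well plates to compound at five concentrations. TGI denotes the concentration required for complete inhibition of growth.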 Where a SMILES comes first, the peptide text is derived from it. The star is where a group is joined. OSu = O=C1CCC(=O)N1O*

How the values were obtained:
Test in all cases: NCI-60 cell line screen, 48 h
[1] = tested on: HCT-15 colon
[2] = tested on: K-562 leukemia
[3] = tested on: SF-268 CNS
[4] = tested on: U251 CNS
[5] = tested on: UACC-257 melanoma
[6] = tested on: MCF7 breast
[7] = tested on: SR leukemia

Row | SMILES | TGI [1] [µM] | TGI [2] [µM] | TGI [3] [µM] | TGI [4] [µM] | TGI [5] [µM] | TGI [6] [µM] | TGI [7] [µM]
1 | CC1(C)[C@@H](Cn2cc(I)c(=O)[nH]c2=O)CC[C@@]1(C)CO | > 100 | > 100 | > 100 | > 100 | > 100 | – | –
2 | COc1cccc(-c2cc(=O)c3cc(N4CCCCC4)ccc3[nH]2)c1 | > 100 | > 100 | > 100 | > 85.9 | > 100 | > 100 | –
3 | Cc1nn(C(=O)Cc2ccccc2)c2c1C(c1ccccc1)SC(N)=N2 (stereo unspecified) | > 100 | > 100 | > 100 | – | > 100 | > 100 | > 100
4 | CCOC(=O)C(=[N+]=[N-])C(=O)CN1C(=O)c2ccccc2C1=O | > 100 | > 100 | > 100 | > 100 | > 100 | > 100 | –
5 | C/C(=N\NC(N)=S)c1ccc2c(c1)Sc1ccccc1O2 | 4.63 | > 100 | 8.36 | 11.7 | > 100 | – | > 100
6 | Cc1ccc(-[n+]2cc([O-])on2)cc1 | > 100 | > 100 | > 100 | > 100 | > 100 | – | > 100
7 | CSC(=O)c1sc(SC)[n+](-c2ccccc2)c1O | 54.3 | > 100 | 31.2 | 30.1 | – | 52.8 | > 100
8 | Cc1ccc2nc(-c3ccccc3)cc(=O)n2c1 | > 100 | > 100 | > 100 | > 100 | – | > 100 | > 100
9 | O=C1/C(=C/c2ccco2)NC(=S)N1CN1CCCCC1 | > 100 | > 100 | > 100 | > 100 | – | > 100 | > 100
10 | Cc1ccc(S[C@@H](C)[C@@](O)(CF)CN(Cc2ccccc2)C(=O)C(F)(F)F)cc1 | 55.5 | – | > 100 | 35.3 | 56.8 | 58.2 | –
11 | NC(Cc1ccccc1)C(=O)NC(Cc1ccccc1)NC(=O)C(Cc1c[nH]c2ccccc12)C(=O)O (stereo unspecified) | > 100 | – | > 100 | > 100 | > 100 | > 100 | > 100
12 | CCN(CC)CCCNC(=O)c1cc(-c2nccn2C)nc2ccccc12 | > 100 | > 100 | > 100 | > 100 | > 100 | > 100 | –
13 | NCCCCC(NC(=O)C(N)Cc1ccc(O)cc1)C(=O)NC(CCCCN)C(=O)NC(CCCCN)C(=O)ON1C(=O)CCC1=O (stereo unspecified) (H-YKKK-OSu; configuration not given here) | > 100 | > 100 | – | > 100 | > 100 | > 100 | > 100
14 | Cc1cn(C2OC(CO[Si](C)(C)C(C)(C)C)C(N(C)O[Si](C)(C)C(C)(C)C)C2[Se]c2ccccc2)c(=O)[nH]c1=O (stereo unspecified) | 30.1 | > 100 | 10.2 | 24.5 | – | 25.4 | > 100
15 | CCOC(=O)/C(C#N)=C/c1coc2cc(C)cc(C)c2c1=O | > 100 | > 100 | > 100 | > 100 | > 100 | – | > 100
16 | Nc1ncc2c(n1)-c1ccccc1OC2N1CCCCC1 (stereo unspecified) | > 100 | – | > 100 | > 100 | > 100 | > 100 | > 100
17 | Cc1[nH]c(=O)nc2sc(=NC3CCCCC3)n(C3CCCCC3)c(=O)c12 | > 100 | > 100 | – | > 100 | > 100 | > 100 | –
18 | O=[N+]([O-])c1ccc2nc(Nc3ccccc3)c(Nc3ccccc3)nc2c1 | 2.18 | > 100 | 7.91 | 1.99 | 5.1 | – | > 100
19 | COc1ccc2oc3c(C)cc4c(OC)nnc(OC)c4c3c2c1 | 63.9 | > 100 | > 100 | 14.8 | > 100 | > 100 | –
20 | CCOC(=O)C12OC(OCC)(CC1(OCC)OCC)C1(CC1)C2=O (stereo unspecified) | > 100 | > 100 | > 100 | > 100 | > 100 | > 100 | –
21 | CCOC(=O)c1nnn(CCCCO)c1C(=O)OCC | > 100 | – | > 100 | > 100 | > 100 | > 100 | > 100
22 | CC(C)C(NC(=O)Oc1ccccc1)C(=O)NC1c2c(Br)sc(Br)c2C(=O)C1O (stereo unspecified) | 8.39 | 17.4 | 14.1 | 9.53 | 8.66 | > 25 | –
23 | COc1ccc(C(SCCO)(c2ccccc2)c2ccc(OC)cc2)cc1 | 30.3 | > 72.9 | 26.8 | 14.8 | 30.5 | 18.5 | –
24 | O=C1/C(=C\c2ccc(Cl)cc2Cl)Sc2scc(-c3ccc(O)c(O)c3)[n+]21 | 30.1 | – | > 100 | 25.5 | 71.3 | 73.2 | –
25 | O=C(O)Cc1ccc([N+](=O)[O-])cc1[N+](=O)[O-] | > 100 | > 100 | > 100 | > 100 | > 100 | > 100 | –
